Test results published in US20220031871A1, “ANTIBODIES FOR CHELATED RADIONUCLIDES AND CLEARING AGENTS” (Hoffmann-La Roche Inc., priority 2018, published 2022).

Experiments:
BxPC3 tumors = test: Protocol 95: TCMC saturation, CA-to-antibody ratio, ^212Pb activity; assay type: in vivo, SCID mice; conditions: no CA, 24 h; for tumor accumulation: ±SD, n=3
Description: In this study, nine different clearing agents based on dextran-500 were compared in terms of inhibition of ^212Pb-DOTAM association to tumors. More specifically, the experiment assessed the impact on tumor-associated radioactivity from i) TCMC saturation, ii) clearing agent-to-antibody ratio, and iii) production/purification method. In addition, the tumor uptake was compared after injection of 10 or 30 μCi of ^212Pb-DOTAM, without pretargeting or CA, to assess whether radioactivity saturation of the tumor was achieved already at the lower dose.
PRIT-0165 (100 μg per 100 μL) was administered i.v., followed three days later by dextran-500-based clearing reagents (10-170 μg per 100 μL) with varying TCMC substitution (10-100%). Groups J and K received PBS instead of clearing agent. Two hours later, mice were injected i.v. with 100 μL of the respective ^212Pb-DOTAM solutions (10 or 30 μCi).
Mice were sacrificed and necropsied 24 hours after injection of ^212Pb-DOTAM. Blood, bladder, spleen, kidneys, liver, lung, muscle, tail, and tumors were collected, weighed and measured for radioactivity content, and the % ID/g subsequently calculated.

s.c. BxPC3 tumors = test: Protocol 103: efficacy, biodistribution, tolerability of CEA-PRIT; assay type: in vivo, SCID mice
Description: Step 1: Administration of a BsAb (i.v. or i.p.): The BsAb used in the studies binds Pb-DOTAM with high affinity and targets the tumor e.g. via CEA.
Step 2: Administration of CA (i.v. or i.p.): To allow efficient tumor accumulation of ^212Pb-DOTAM, circulating BsAb needs to be neutralized in the blood using a CA that blocks ^212Pb-DOTAM binding to unbound BsAb, without penetrating into the tumor and consequently blocking the pretargeted sites. The CA is administered once the BsAb has accumulated to a sufficient degree in the tumor, generally after 4-10 days. […]
The body weight (BW) of the study animals was measured at least 3 times per week, with additional measurements as needed depending on the health status. […]
Blood was collected at termination from the venous sinus using retro-orbital bleeding, followed by additional tissue harvest for radioactive measurements and/or histological analysis, as mandated by the protocols. […] Organs and tissues collected for biodistribution purposes were weighed and measured for radioactivity using a 2470 WIZARD^2 automatic gamma counter (PerkinElmer), and the percent injected dose per gram of tissue (% ID/g) subsequently calculated, including corrections for decay and background. […]
where d indicates treatment day and 0 the baseline value. […] Tumor regression (TR) was calculated according to: […]

## NC(=O)CN1CCN(CC(N)=O)CCN(CC(N)=O)CCN(CC(N)=O)CC1.[212Pb+2] [^212Pb-DOTAM]
BxPC3 tumors; 10 μCi ^212Pb-DOTAM
  tumor-to-blood ratio: 2.26±0.25
  tumor accumulation: 72.38±10.83 % ID/g
BxPC3 tumors; 30 μCi ^212Pb-DOTAM
  tumor-to-blood ratio: 3.20±0.20
  tumor accumulation: 107.74±14.71 % ID/g
s.c. BxPC3 tumors; 10 μCi, even at multiple injections
  BW loss: mild
s.c. BxPC3 tumors; 30 μCi under the applied conditions
  radioactivity level tolerability: approaching the maximum tolerated activity
